The text below walks through data of US20210052566A1, “METHODS FOR TREATING HEPATITIS B VIRUS (HBV) INFECTION” (INSERM (INSTITUT NATIONAL DE LA SANTÉ ET DE LA RECHERCHE …, priority 2018, published 2021).

Experiment [1] deals with HBV genotype D. Put plainly: De novo establishment of HBV infection/cccDNA in naive dHepaRG, genotype D (treatment before and during inoculation). Format: cell-based, Hepatitis B virus. Here is the method:
(§1) FIG. 1. Experimental outlines. Treatment schemes: (a) Treatments in pre-infection: dHepaRG cells were treated for 24 h (at day −1) with 100 nM of PreS1 peptide (PreS1-pep) or 10 μM of 1C8, or untreated (NT). At day 0, cells were inoculated with HBV (MOI=250) or with HDV (MOI=25) in the presence of drugs for 24 h. For the tenofovir control (TDF at 10 μM), cells were treated at day 1 and 4 post-infection. Supernatant and cells were harvested at day 7 post-infection. (b) Treatments in post-infection: dHepaRG cells were inoculated with HBV (MOI=250) or with HDV (MOI=25). At days 4, 7 and 9 post infection, cells were treated with TDF 10 μM, lamivudine (3TC) at 10 μM, 1C8 10 μM or untreated (NT). Supernatant and cells were harvested at day 11 postinfection.
FIG. 7. Effect of 1C8 on de novo establishment of ccDNA in dHepaRG (genotype D). […] B) HBs and HBe secreted antigens in supernatant were quantiUied by ELISA, whereas HBV DNA contained in virions was quantified by qPCR after viral nucleic acid extraction from supernatant. […] Statistics were done by two-tailed Mann-Whitney test, with following signiUicativity: *P<0.05, **P<0.01, ***P<0.001, ****P<0.0001. nd=not determined.
Human liver progenitor HepaRG cells were cultured in Williams medium (ThermoFisher) supplemented with 10% of FBS (Perbio), Penicillin/Streptomycin (500 U/mL), glutamine (2 mM), hydrocortisone Upjohn (2.5 mg/L; Serb laboratory), insulin (5 mg/L; Sigma Aldrich). […] The multiplicity of infection (MOI; expressed as virus genome equivalent/cell) is indicated in the figure legends, but was of 100 vge/cell if not precised.
(§2) From cell culture supernatants, secreted HBe and HBs antigens were quantified by ELISA, using a chemiluminescence immunoassay kit (Autobio, China) following manufacturer's instructions. […]
A HBV standard was used for quantification of extracellular viral DNA and RNA. For cccDNA quantification total DNA was digested by T5 exonuclease (New England Biolabs) for 6 hours at 37° C. then submitted to qPCR using Taqman Fast Advanced Master Mix (Life Technologies). […]

Experiment [2] relates to HBV genotype C. Put plainly: De novo establishment of HBV infection/cccDNA in naive dHepaRG, genotype C (treatment before and during inoculation). Format: cell-based, Hepatitis B virus. The protocol:
as §1, with “Supernatant and cells were harvested at day 11 postinfection.” left out
FIG. 8. […] B) HBs and HBe secreted antigens in supernatant were quantified by ELISA, whereas HBV DNA contained in virions was quantified by qPCR after viral nucleic acid extraction from supernatant. […] Statistics were done by two-tailed Mann-Whitney test, with following significativity: *P<0.05, **P<0.01, ***P<0.001, ****P<0.0001. nd=not determined […]
as §2
A HBV standard was used for quantification of extracellular viral DNA and RNA. […] CccDNA was normalized to β-Globin quantification. […]

The mark [3] stands for this setting: dHepaRG treated before and during inoculation, 10 microM.

One may read the inhibition as the drop in the measured response relative to a control, in per cent. Read a high inhibition as a strong effect. As to `Cn1ccc(=O)c(C(=O)Nc2nsc3ccc([N+](=O)[O-])cc23)c1` [1C8, 4-pyridinonebenzisothiazole carboxamide], the inhibition at 10 µM in experiment [1] (Hepatitis B virus, dHepaRG treated before and during HBV inoculation, 10 microM) stood at 50%; in experiment [2] (Hepatitis B virus, dHepaRG treated before and during HBV inoculation), 70%. Besides, the “other viral markers (intracellular RNAs, HBeAg, HBsAg), genotype D” value in experiment [1] (setting [3]) is recorded as “also reduced”. Besides, the “inhibition of cccDNA establishment compared with controls (entry inhibitor, TDF)” value in experiment [1] (dHepaRG treated before and during inoculation, 1C8 and TDF 10 microM, Entry Inh. 100 nM, stated for genotypes D and C together) is recorded as “lower than that obtained with an entry inhibitor, but higher than that obtained with a NUC”. Besides, the “other viral markers (intracellular RNAs, HBeAg, HBsAg), genotype C” value in experiment [2] (setting [3]) is “also reduced”.
